Consider six molecules from PubChem BioAssay AID602161 (Broad Institute, 2011).

Records with an inconclusive call do not appear.

In the assay the target is Heat shock protein HSP 90-alpha (Homo sapiens) (UniProt P07900). The assay can be described thus: HsHsp90-dependent glucocorticoid receptor activity inhibition – S. cerevisiae, beta-galactosidase luminescence, dry powder, selectivity assay for Plasmodium Hsp90 inhibitor project, dose response (AID 602161). Conditions: S. cerevisiae HsHsp90 GR reporter, beta-gal luminescence.
`CCOc1cc(S(=O)(=O)NC2CCCCCC2)ccc1F`: the AC50 (in general, the midpoint of the concentration-response curve, whichever way the signal moves) is 22.2 µM.
Regarding `O=S(=O)(NC1CCCCCC1)c1ccc(Br)s1`, the AC50 was 2.6 µM.
As to `COc1ccc2c(c1)C=C(C(=O)NCc1ccc(Cl)cc1)CO2`, the concentration at half-maximal activity (AC50) was 9.79 µM.
Then `O=S(=O)(/C=C/c1ccccc1)NC1CCCCCCC1`, with 9.6 µM.
Take `Cc1ccc(OCc2n[nH]c(=S)n2C2CCCCC2)cc1`: the AC50 is 12.6 µM.
Take `O=C(CSCC(=O)N1CCCCC1)Nc1nc(-c2ccc(Cl)s2)cs1`: the AC50 is 9.72 µM.
